Assay results taken from ChEMBL document CHEMBL4602729, “O-Alkyl Hydroxamates Display Potent and Selective Antileishmanial Activity” (J Med Chem, 2020).

What was measured:
[1] = Mutagenicity in Salmonella typhimurium TA100 at 10 to 75 uM measured after 5 days in presence of S9 fraction by Ames test; format: toxicity, subcellular; details: salmonella enterica subsp. enterica serovar typhimurium, s9, 120 h
[2] = Toxicity in BALB/c mouse infected with Leishmania infantum MON-1 promastigotes assessed as enzymatic alteration in serum at 10 to 25 mg/kg, ip administered daily for 14 days starting from 28 days post infection using gold nanoparticle incorporated compound; format: organism-based; details: in vivo
[3] = Toxicity in BALB/c mouse infected with Leishmania infantum MON-1 promastigotes assessed as swelling of spleen at 10 to 25 mg/kg, ip administered daily for 14 days starting from 28 days post infection using PLGA nanoparticle incorporated compound; format: organism-based; details: in vivo
[4] = test system: Leishmania infantum; experiment: (§1) Antileishmanial activity against Leishmania infantum MON-1 promastigotes infected in BALB/c mouse assessed as reduction in spleen parasite load at 10 mg/kg, ip administered daily for 14 days starting from 28 days post infection using gold nanoparticle incorporated compound measured post last dose in presence of meglumine antimoniate by Taqman qRT-PCR analysis relative to control; format: functional; parameters: scale not given: the % may be the effect or the level left
[5] = Solubility of the compound in water; format: physicochemical
[6] = Toxicity in Swiss mouse at 500 mg/kg administered as single dose measured after 28 days; format: organism-based; details: in vivo, 672 h
[7] = biological target: Cytochrome P450 2C9 (Homo sapiens, UniProt P11712); experiment: Inhibition of CYP2C9 in human liver microsomes using diclofenac as substrate measured after 45 mins by LC-MS/MS analysis; format: ADME
Chain of Cytochrome P450 2C9 (P11712 whole entry): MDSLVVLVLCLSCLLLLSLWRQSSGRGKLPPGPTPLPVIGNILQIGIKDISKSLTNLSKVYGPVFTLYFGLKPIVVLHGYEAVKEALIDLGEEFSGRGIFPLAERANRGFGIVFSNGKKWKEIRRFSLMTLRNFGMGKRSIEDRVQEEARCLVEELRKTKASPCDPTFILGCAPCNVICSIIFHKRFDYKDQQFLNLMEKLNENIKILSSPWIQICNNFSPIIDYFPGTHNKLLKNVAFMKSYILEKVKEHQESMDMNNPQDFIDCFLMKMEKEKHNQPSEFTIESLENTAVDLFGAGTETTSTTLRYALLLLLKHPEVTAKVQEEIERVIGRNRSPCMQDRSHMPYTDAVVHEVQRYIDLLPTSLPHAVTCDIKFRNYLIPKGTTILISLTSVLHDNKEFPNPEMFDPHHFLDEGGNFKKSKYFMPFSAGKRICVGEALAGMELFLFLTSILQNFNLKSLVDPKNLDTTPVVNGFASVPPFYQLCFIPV

[8] = Solubility of the compound in plasma (unknown origin); format: ADME, cell-free
[9] = test system: Leishmania infantum; experiment: Antileishmanial activity against Leishmania infantum MON-1 intracellular amastigotes infected in Swiss mouse BMDM measured after 48 hrs by Giemsa staining based optical microscopic analysis; format: functional, organism-based; details: Leishmania infantum, MON-1, BMDM, 48 h
[10] = test system: Leishmania infantum; experiment: as §1, with “liver” for “spleen”; format: functional; parameters: scale not given: the % may be the effect or the level left
[11] = test system: Leishmania infantum; experiment: as §1, with “5” for “10”; format: functional; parameters: scale not given: the % may be the effect or the level left
[12] = Toxicity in BALB/c mouse infected with Leishmania infantum MON-1 promastigotes assessed as enzymatic alteration in plasma at 10 to 25 mg/kg, ip administered daily for 14 days starting from 28 days post infection using PLGA nanoparticle incorporated compound; format: organism-based; details: in vivo
[13] = Toxicity in BALB/c mouse infected with Leishmania infantum MON-1 promastigotes assessed as swelling of spleen at 10 to 25 mg/kg, ip administered daily for 14 days starting from 28 days post infection using gold nanoparticle incorporated compound; format: organism-based; details: in vivo
[14] = Toxicity in BALB/c mouse infected with Leishmania infantum MON-1 promastigotes assessed as enzymatic alteration in plasma at 10 to 25 mg/kg, ip administered daily for 14 days starting from 28 days post infection using gold nanoparticle incorporated compound; format: organism-based; details: in vivo
[15] = test system: BMDM; experiment: Cytotoxicity against Swiss mouse BMDM assessed as reduction in cell viability at 3.21 uM measured after 72 hrs using PLGA nanoparticle incorporated compound by tryphan blue assay; format: cell-based
[16] = Toxicity in BALB/c mouse infected with Leishmania infantum MON-1 promastigotes assessed as biochemical alteration in plasma at 10 to 25 mg/kg, ip administered daily for 14 days starting from 28 days post infection using gold nanoparticle incorporated compound; format: organism-based; details: in vivo
[17] = Mutagenicity in Salmonella typhimurium TA100 at 10 to 75 uM measured after 5 days in absence of S9 fraction by Ames test; format: toxicity; details: salmonella enterica subsp. enterica serovar typhimurium, s9, 120 h
[18] = Toxicity in BALB/c mouse infected with Leishmania infantum MON-1 promastigotes assessed as weight loss at 10 to 25 mg/kg, ip administered daily for 14 days starting from 28 days post infection using gold nanoparticle incorporated compound; format: organism-based; details: in vivo
[19] = Toxicity in BALB/c mouse infected with Leishmania infantum MON-1 promastigotes assessed as histological changes at 10 to 25 mg/kg, ip administered daily for 14 days starting from 28 days post infection using gold nanoparticle incorporated compound; format: organism-based; details: in vivo
[20] = Toxicity in BALB/c mouse infected with Leishmania infantum MON-1 promastigotes assessed as swelling of kidney at 10 to 25 mg/kg, ip administered daily for 14 days starting from 28 days post infection using gold nanoparticle incorporated compound; format: organism-based; details: in vivo
[21] = Toxicity in BALB/c mouse infected with Leishmania infantum MON-1 promastigotes assessed as swelling of kidney at 10 to 25 mg/kg, ip administered daily for 14 days starting from 28 days post infection using PLGA nanoparticle incorporated compound; format: organism-based; details: in vivo

## O=C(CCCCCCC(=O)Nc1ccccc1)NOC(c1ccccc1)(c1ccccc1)c1ccccc1
[1]
  Activity: Non-Toxic
[2]
  Activity: Non-Toxic
[3]
  Activity: Non-Toxic
[4]
  Activity: 92%
[5]
  solubility: < 100 µg/mL
[6]
  Activity: Non-Toxic
[7]
  IC50: 2.52 µM
[8]
  solubility: Insoluble
[9]
  IC50: 3.21 µM
[10]
  Activity: 100%
[11]
  Activity: 84%
[12]
  Activity: Non-Toxic
[13]
  Activity: Non-Toxic
[14]
  Activity: Non-Toxic
[15]
  Activity: Non-Toxic
[16]
  Activity: Non-Toxic
[17]
  Activity: Non-Toxic
[18]
  Activity: Non-Toxic
[19]
  Activity: Non-Toxic
[20]
  Activity: Non-Toxic
[21]
  Activity: Non-Toxic
